These results are taken from patent US10730884B2, “Substituted indole compound derivatives as dengue viral replication inhibitors” (Janssen Pharmaceuticals, Inc., priority 2016, dated 2020).

pEC50: −log10 of the molar value. Like-named read-outs stand apart in the source and are kept apart here. A value given as a limit tells only on which side of the number the result lay.

One series relates to DENV-2 16681 strain. Description: DENV-2 antiviral assay (eGFP-labeled virus, Vero cells). The format is cell-based, Dengue virus. As to conditions: for pEC50: DENV-2 16681 eGFP, Vero cells, MOI 0.5, 3 days; for SI: SI=CC50/EC50, DENV-2 antiviral assay. In a few lines:
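Vero cells (2500/well) pre-plated with compound (9-step 5-fold series), infected next day with eGFP-labeled DENV-2 16681 at MOI 0.5 in MEM with 2% FCS; 3 days at 37° C. eGFP fluorescence read at 488 nm; inhibition versus virus and cell controls, EC50 by linear interpolation.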

Series [1] is described as follows: in vitro. The note with it: African green monkey.
The next series deals with DENV-4 strain H241. Description: Tetravalent RT-qPCR assay, serotype 4. It counts as cell-based, Dengue virus. The gist of the method:
(§1)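 Vero cells (10000/well, MEM with 2% FCS) seeded on compound, incubated overnight, then infected with the given DENV serotype strain, diluted to give Cp ~22-24, for 3 days at 37 °C. Duplex RT-qPCR of viral 3′UTR and β-actin; EC50 by ΔΔCp normalised to β-actin, CC50 from β-actin Cp.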

Series [2] relates to Vero cells. The note with it: African green monkey.
Series [3] relates to Vero cells. Description: in vitro. The format is cell-based. As to conditions: African green monkey, 3 days. How it is done:
(§2) The antiviral activity of the compounds of the invention was tested against DENV-1 strain TC974#666 (NCPV), DENV-2 strain 16681, DENV-3 strain H87 (NCPV) and DENV-4 strain H241 (NCPV) in a RT-qPCR assay. Therefore, Vero cells were infected with either DENV-1, or -2, or -3, or -4 in the presence or absence of test compounds. At day 3 post-infection, the cells were lysed and cell lysates were used to prepare cDNA of both a viral target (the 3′UTR of DENV; Table 2) and a cellular reference gene (β-actin, Table 2). Subsequently, a duplex real time PCR was performed on a Lightcycler480 instrument. The generated Cp value is inversely proportional to the amount of RNA expression of these targets. Inhibition of DENV replication by a test compound result in a shift of Cp's for the 3′UTR gene. On the other hand, if a test compound is toxic to the cells, a similar effect on β-actin expression will be observed. The comparative ΔΔCp method is used to calculate EC50, which is based on the relative gene expression of the target gene (3′UTR) normalized with the cellular housekeeping gene (β-actin). In addition, CC50 values are determined based on the Cp values acquired for the housekeeping gene β-actin.
(§3) The culture medium consisted of minimal essential medium supplemented with 2% of heat-inactivated fetal calf serum, 0.04% gentamycin (50 mg/mL) and 2 mM of L-glutamine. Vero cells, obtained from ECACC, were suspended in culture medium and 75 μL/well was added in 96-well plates (10000 cells/well), which already contain the antiviral compounds. […] In addition, each plate contains wells which are assigned as virus controls (containing cells and virus in the absence of compound) and cell controls (containing cells in the absence of virus and compound). Once the cells were added in the plates, the plates were incubated in a fully humidified incubator (37° C., 5% CO2) until the next day. Dengue viruses serotype-1, 2, 3 and 4 were diluted in order to obtain a Cp of ˜22-24 in the assay. Therefore, 25 μL of virus suspension was added to all the wells containing test compound and to the wells assigned as virus control. In parallel, 25 μL of culture medium was added to the cell controls. Next, the plates were incubated for 3 days in a fully humidified incubator (37° C., 5% CO2). After 3 days, the supernatant was removed from the wells and the cells were washed twice with ice-cold PBS (˜100 μL). The cell pellets within the 96-well plates were stored at −80° C. for at least 1 day. Next, RNA was extracted using the Cells-to-CT™ lysis kit, according to the manufacturer's guideline (Life Technologies). The cell lysates can be stored at −80° C. or immediately used in the reverse transcription step.
(§4) Using the LightCycler software and an in-house LIMS system, dose response curves for each compound were calculated and the half maximal effective concentration (EC50) and the half maximal cytotoxic concentration (CC50) were determined (Tables 5-8).

Series [4] can be described thus: in vitro. As to conditions: African green monkey, CC50. The format is cell-based. How it is done: as §2, §3, §4
The next series concerns DENV-2 strain 16681. Description: Tetravalent RT-qPCR assay, serotype 2. The format is cell-based, Dengue virus. The gist of the method: as §1
A further series has as its system DENV-1 strain TC974#666. Description: Tetravalent RT-qPCR assay, serotype 1. It counts as cell-based, Dengue virus. In a few lines: as §1
(In qPCR the cycle at which signal appears reflects the starting amount.)

In the next series the test system is DENV-3 strain H87. Description: Tetravalent RT-qPCR assay, serotype 3. It counts as cell-based, Dengue virus. The gist of the method: as §1
In the next series the test system is DENV-2. As to conditions: analogous DENV-2 antiviral assay, reported activity; cited from earlier work.
Where [5] appears, read: Dengue virus, DENV2, Vero, 72 h.

What is called melting point is the temperature, or range, at which the solid turns liquid. As usually defined, the pEC50 is the EC50 on a negative log10 scale, so that one unit is a factor of ten. `COc1cc(NC(C(=O)c2c[nH]c3cc(OC)c(Cl)cc23)c2ccc(F)cc2OC)cc(OCCO)c1` (racemic) [Compound 2, 1-(5-chloro-6-methoxy-1H-indol-3-yl)-2-(4-fluoro-2-methoxyphenyl)-2-((3-(2-hydroxyethoxy)-5-methoxyphenyl)amino)ethanone] came in with a melting point of 210 °C. The pEC50 in the series on DENV-2 16681 strain (setting [5]) was 8.82. Also, the SI in the series on DENV-2 16681 strain was found to be 4410. Besides, the CC50 in “in vitro [1]” turned out to be 6700 nM.
As for `COc1cc(NC(C(=O)c2c[nH]c3cc(F)c(C)cc23)c2ccc(F)cc2OC)cc(OCCO)c1` (racemic) [Compound 3, 2-(4-fluoro-2-methoxyphenyl)-1-(6-fluoro-5-methyl-1H-indol-3-yl)-2-((3-(2-hydroxyethoxy)-5-methoxyphenyl)amino)ethanone], the melting point turned out to be 197 °C. Further, the pEC50 with DENV-2 16681 strain (setting [5]) is 8.46. Moreover, in the series on DENV-2 16681 strain, the SI is on record as 1140. In “in vitro [1]”, the CC50 amounted to 4000 nM.
In turn, `COc1cc(NC(C(=O)c2c[nH]c3ccc(C)cc23)c2ccc(F)cc2OC)cc(OCCO)c1` (racemic) [Compound 5, 2-(4-fluoro-2-methoxyphenyl)-2-((3-(2-hydroxyethoxy)-5-methoxyphenyl)amino)-1-(5-methyl-1H-indol-3-yl)ethanone] came in with a melting point of 199 °C. In the series on DENV-2 16681 strain (setting [5]), this compound gave a pEC50 of 8.32. In addition, in the series with DENV-2 16681 strain, the SI is listed as 3190. In addition, the CC50 in “in vitro [1]” came out at 14000 nM.
In turn, `COc1cc(NC(C(=O)c2c[nH]c3cc(F)c(C)cc23)c2ccc(Cl)cc2OC)cc(OCCO)c1` (racemic) [Compound 9, 2-(4-chloro-2-methoxyphenyl)-1-(6-fluoro-5-methyl-1H-indol-3-yl)-2-((3-(2-hydroxyethoxy)-5-methoxyphenyl)amino)ethanone] yielded a melting point of 177 °C. Besides, the pEC50 with DENV-2 16681 strain (setting [5]) is 8.92. For the same compound, the SI with DENV-2 16681 strain amounted to 2480. This compound also showed a CC50 in “in vitro [1]” of 3100 nM.
For `COc1cc(NC(C(=O)c2c[nH]c3cc(OC)c(C)c(F)c23)c2ccc(Cl)cc2OC)cc(OCCO)c1` (single isomer, unassigned) [Compound 12B], the pEC50 in the series with DENV-4 strain H241 (Dengue virus, DENV4, Vero, 72 h, RT-qPCR serotype 4 H241, Protocol A, Vero cells, day 3) was 6.74; in the series on DENV-2 strain 16681 (Dengue virus, DENV2, Vero, 72 h, RT-qPCR serotype 2 16681, Protocol A, Vero cells, day 3) it was 9.60; in the series on DENV-2 16681 strain, 9.59; with DENV-1 strain TC974#666 (Dengue virus, DENV1, Vero, 72 h, RT-qPCR serotype 1 TC974#666, Protocol A, Vero cells, day 3, read-out: EC50), 8.31; in the series on DENV-3 strain H87 (Dengue virus, DENV3, Vero, 72 h, RT-qPCR serotype 3 H87, Protocol A, Vero cells, day 3, read-out: EC50), 7.70. Further, the SI is given as greater than 15 in the series with DENV-4 strain H241 (RT-qPCR serotype 4 H241); greater than 12200 in the series with DENV-2 strain 16681 (RT-qPCR serotype 2 16681); greater than 48400 in the series with DENV-2 16681 strain; greater than 508 in the series on DENV-1 strain TC974#666 (RT-qPCR serotype 1 TC974#666); greater than 106 in the series on DENV-3 strain H87 (RT-qPCR serotype 3 H87). Also, the CC50 was 4600 nM in the series with Vero cells [2] and greater than 2500 nM with Vero cells [3]. Further, the CC50 at 3 days in the series “in vitro [4]” is greater than 2200 nM.
For the compound `COc1cc(NC(C(=O)c2c[nH]c3ccccc23)c2ccc(F)cc2)cc(OCCO)c1` (stereo not shown) [(350) of WO-2013/045516], in the series on DENV-2, the pEC50 was 8.00 and the SI was 3462.
